Reference: ChEMBL document CHEMBL1201862, “PubChem BioAssay data set” (2004)
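Each compound was tested at five concentrations against cells in 96-well plates for 48 hours. GI50 marks 50% less growth.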 Active and inactive are the calls of the source. Cut-off read from the data, not from the text of the source: active = GI50 up to about 1.1 µM and inactive = higher.

Assays:
Experiment in all cases: inhibition of tumour cell growth, NCI panel, 48 h
MCF7 = system: MCF7
MDA-MB-231 = system: MDA-MB-231
LOX IMVI = system: LOX IMVI
UACC-62 = system: UACC-62
HT-29 = system: HT-29
COLO 205 = system: COLO 205
PC-3 = system: PC-3
EKVX = system: EKVX
SF-539 = system: SF-539
OVCAR-4 = system: OVCAR-4
NCI-H460 = system: NCI-H460
CCRF-CEM = system: CCRF-CEM
SF-295 = system: SF-295
HCT-15 = system: HCT-15
UACC-257 = system: UACC-257
CAKI-1 = system: CAKI-1
NCI-H226 = system: NCI-H226
MDA-N = system: MDA-N

Row | SMILES | GI50 (MCF7) | GI50 (MDA-MB-231) | GI50 (LOX IMVI) | GI50 (UACC-62) | GI50 (HT-29) | GI50 (COLO 205) | GI50 (PC-3) | GI50 (EKVX) | GI50 (SF-539) | GI50 (OVCAR-4) | GI50 (NCI-H460) | GI50 (CCRF-CEM) | GI50 (SF-295) | GI50 (HCT-15) | GI50 (UACC-257) | GI50 (CAKI-1) | GI50 (NCI-H226) | GI50 (MDA-N)
1 | Cn1c(=O)oc2cc(C(O)CN3CCN(Cc4ccc5c(c4)OCO5)CC3)ccc21 (centres undefined) | > 100 µM (inactive) | > 100 µM (inactive) | > 100 µM (inactive) | > 100 µM (inactive) | > 100 µM (inactive) | > 100 µM (inactive) | > 100 µM (inactive) | > 100 µM (inactive) | > 100 µM (inactive) | > 100 µM (inactive) | > 100 µM (inactive) | > 100 µM (inactive) | > 100 µM (inactive) | > 100 µM | > 100 µM (inactive) | > 100 µM (inactive) | > 100 µM (inactive) | 
2 | O=C1c2ccccc2C(=O)N1CCc1ncc[nH]1 | > 100 µM (inactive) |  | > 100 µM (inactive) | > 100 µM (inactive) | > 100 µM (inactive) | > 100 µM (inactive) | > 100 µM (inactive) | > 100 µM (inactive) | > 100 µM (inactive) |  | > 100 µM (inactive) | > 100 µM (inactive) | > 100 µM (inactive) | > 100 µM | > 100 µM (inactive) | > 100 µM (inactive) |  | > 100 µM (inactive)
3 | CCOC(=O)C(NC(=O)c1cccc(Cl)c1)(Nc1ccc(S(=O)(=O)Nc2cc(C)nc(C)n2)cc1)C(F)(F)F (centres undefined) | > 100 µM (inactive) | > 100 µM (inactive) | > 100 µM (inactive) |  | > 100 µM (inactive) | > 100 µM (inactive) | > 100 µM (inactive) | > 100 µM (inactive) | > 100 µM (inactive) | > 100 µM (inactive) | > 100 µM (inactive) | > 100 µM (inactive) | > 100 µM (inactive) | > 100 µM | > 100 µM (inactive) | > 100 µM (inactive) | > 100 µM (inactive) | 
4 | CO[C@H]1[C@@H](O)[C@@H](O)O[C@@H](O[C@H]2CC[C@@]3(C)[C@H](CC[C@@H]4[C@@H]3[C@H](O)C[C@]3(C)[C@@H](C5=CC(=O)OC5)CC[C@]43O)C2)[C@@H]1O |  | 0.649 µM (active) | 0.193 µM (active) | 0.355 µM (active) | 0.435 µM (active) | 0.441 µM (active) | 0.283 µM (active) | 0.151 µM (active) | 0.08 µM (active) | 0.192 µM (active) | 0.0895 µM (active) | 0.23 µM (active) | 0.141 µM (active) | 0.281 µM | 0.382 µM (active) | 0.111 µM (active) | 0.69 µM (active) | 0.243 µM (active)
5 | COc1ccccc1/C=C/c1c(N)ncnc1Nc1cccc(Cl)c1 | 25.8 µM (inactive) | 17.7 µM (inactive) |  | 16.6 µM (inactive) | 17.7 µM (inactive) |  | 0.164 µM (active) | 16.7 µM (inactive) | 18.3 µM (inactive) | 14.6 µM (inactive) | 20.7 µM (inactive) | 0.16 µM (active) | 26.2 µM (inactive) | 15.9 µM | 19.3 µM (inactive) | 20.9 µM (inactive) | 17.4 µM (inactive) | 25 µM (inactive)
6 | CC(=O)O[C@@H]1CC2[C@@H](CCC3Cc4nc5c(nc4C[C@@]32C)CC2CC[C@@H]3C(CC[C@@]4(C)C3CC[C@@H]4C(C)CCCC(C)C)[C@@]2(C)C5)C2C[C@@H]3OC4(CCC(C)CO4)C(C)[C@@H]3[C@]21C (some centres undefined) | > 100 µM (inactive) | > 100 µM (inactive) |  | 2.01 µM (inactive) | > 100 µM (inactive) | > 100 µM (inactive) | > 100 µM (inactive) | > 100 µM (inactive) | > 100 µM (inactive) | > 100 µM (inactive) | > 100 µM (inactive) | > 100 µM (inactive) | 53.8 µM (inactive) | > 100 µM | > 100 µM (inactive) |  | 23.4 µM (inactive) | > 100 µM (inactive)
7 | CCOC(=O)c1cc2c(OC(C)=O)ccc(OC(C)=O)c2s1 | 3.03 µM (inactive) | 2.02 µM (inactive) | 0.891 µM (active) | 1.82 µM (inactive) | 3.02 µM (inactive) | 2.17 µM (inactive) | 1.96 µM (inactive) | 2.82 µM (inactive) | 1.73 µM (inactive) | 4.75 µM (inactive) | 5.65 µM (inactive) | 2.16 µM (inactive) | 6.9 µM (inactive) | 1.75 µM | 1.95 µM (inactive) | 4.35 µM (inactive) | 12.9 µM (inactive) | 
8 | CC(C)(C)C(=O)O[C@H]1C=C[C@@H](O)[C@@H]2[C@H]1[C@@H]1C=C[C@H]2C1 | 7.18 µM (inactive) | 19.2 µM (inactive) | 21.4 µM (inactive) | 9.79 µM (inactive) |  | 6.03 µM (inactive) |  | 6.01 µM (inactive) | 26.5 µM (inactive) | 21.2 µM (inactive) | 53.8 µM (inactive) | 9.35 µM (inactive) | 44.5 µM (inactive) | 20 µM | 6.52 µM (inactive) | 71 µM (inactive) |  | 19.3 µM (inactive)
9 | CN(C)c1ccc(C2CC(c3ccc4ccccc4c3O)=NN2)cc1 (centres undefined) | 27.7 µM (inactive) | 50 µM (inactive) |  | 36.2 µM (inactive) | 34.4 µM (inactive) | 19.5 µM (inactive) | 32 µM (inactive) |  | 24.5 µM (inactive) | 94.4 µM (inactive) | 32.2 µM (inactive) | 17.9 µM (inactive) | 31.6 µM (inactive) | 44 µM | 38.8 µM (inactive) | 40.6 µM (inactive) | 41.5 µM (inactive) | 26.5 µM (inactive)
10 | O=c1cc(-c2ccc(O)cc2)n(C2CC2)c2ccccc12 | 4.66 µM (inactive) | 8.47 µM (inactive) | 4.67 µM (inactive) | 3.91 µM (inactive) | 1.57 µM (inactive) | 2.64 µM (inactive) | 9.44 µM (inactive) |  | 5.38 µM (inactive) |  | 3.76 µM (inactive) | 7.16 µM (inactive) | 3.46 µM (inactive) | 4.08 µM | 10.2 µM (inactive) | 4.42 µM (inactive) | 2.67 µM (inactive) | 10.6 µM (inactive)
11 | Cc1ccc2c(c1)C1(C)OC(CC(N)C1O)O2 (centres undefined) |  |  | > 100 µM (inactive) | > 100 µM (inactive) | > 100 µM (inactive) | > 100 µM (inactive) |  | > 100 µM (inactive) | > 100 µM (inactive) |  | > 100 µM (inactive) | > 100 µM (inactive) | > 100 µM (inactive) | > 100 µM | > 100 µM (inactive) |  | > 100 µM (inactive) | 
12 | COc1ccc(/C=C2\C[C@H]3[C@@H]4CC=C5C[C@@H](OC(C)=O)CC[C@]5(C)[C@H]4CC[C@]3(C)\C2=N\O)cc1OC | 6.3 µM (inactive) |  | 13.3 µM (inactive) | 30.5 µM (inactive) | 5.74 µM (inactive) | 8.77 µM (inactive) | 18.8 µM (inactive) | 3.01 µM (inactive) | 31 µM (inactive) | 11.4 µM (inactive) | 7.03 µM (inactive) | 7.5 µM (inactive) | 6.65 µM (inactive) | 9.44 µM | 14.9 µM (inactive) | 11.2 µM (inactive) | 9.2 µM (inactive) | 10.4 µM (inactive)
13 | COC(=O)[C@@H](O)[C@]1(C(=O)OC)C2O[C@@H](OC)[C@@H]1CCCCCC[C@H]2O |  | > 100 µM (inactive) | > 100 µM (inactive) | > 100 µM (inactive) | > 100 µM (inactive) | > 100 µM (inactive) | > 100 µM (inactive) | > 100 µM (inactive) | > 100 µM (inactive) | > 100 µM (inactive) | > 100 µM (inactive) | > 100 µM (inactive) | > 100 µM (inactive) | > 100 µM | > 100 µM (inactive) | > 100 µM (inactive) | > 100 µM (inactive) | > 100 µM (inactive)
14 | CNc1cc([N+](=O)[O-])ccc1C(=O)N1CCC[C@H]1CO | > 100 µM (inactive) | > 100 µM (inactive) | > 100 µM (inactive) | > 100 µM (inactive) | > 100 µM (inactive) |  | > 100 µM (inactive) | > 100 µM (inactive) | > 100 µM (inactive) |  | > 100 µM (inactive) |  | > 100 µM (inactive) | > 100 µM | > 100 µM (inactive) |  | > 100 µM (inactive) | > 100 µM (inactive)
15 | COc1cc2c(cc1O)NC(=O)[C@@H]1C[C@@H](O)CN1C2=O | > 100 µM (inactive) | > 100 µM (inactive) | 40.2 µM (inactive) | > 100 µM (inactive) | 72.6 µM (inactive) | > 100 µM (inactive) | 43.8 µM (inactive) | > 100 µM (inactive) | 43.8 µM (inactive) | > 100 µM (inactive) | 72.4 µM (inactive) | 28.4 µM (inactive) | 27 µM (inactive) | 50.7 µM | > 100 µM (inactive) | 78 µM (inactive) | > 100 µM (inactive) | 
16 | COc1ccc(-n2sc3ncc(-c4ccccc4)cc3c2=O)cc1 | 28.6 µM (inactive) |  | 32.1 µM (inactive) | 31 µM (inactive) |  | 56.4 µM (inactive) | 42.9 µM (inactive) | 69.5 µM (inactive) |  | 23.3 µM (inactive) | > 100 µM (inactive) | 39.4 µM (inactive) | > 100 µM (inactive) | 35.6 µM | 57.8 µM (inactive) | 27.4 µM (inactive) | 82.2 µM (inactive) | 
17 | CC(=O)Nc1nnc(S(=O)(=O)NC(=S)Nc2ccc(Cl)cc2)s1 | > 100 µM (inactive) | > 100 µM (inactive) | > 100 µM (inactive) | > 100 µM (inactive) | > 100 µM (inactive) | > 100 µM (inactive) | > 100 µM (inactive) | > 100 µM (inactive) | > 100 µM (inactive) | > 100 µM (inactive) | > 100 µM (inactive) | > 100 µM (inactive) | > 100 µM (inactive) | > 100 µM | > 100 µM (inactive) | > 100 µM (inactive) |  | > 100 µM (inactive)
